Data published in PubChem BioAssay AID2060492 (Molecular Pharmacology Branch, DTP, NCI, 2025).

Test system: 695427-040-R-J1-PDC complex spheroids, viability percent T/C
Assay: Anticancer human tumor 695427-040-R-J1-PDC patient-derived colon adenocarcinoma cell line growth inhibition [GQUAD]
Details: for IC50: curve of first compound; for viability, T/C: stronger effect = lower value
Summary of the method: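 Tumor cells were grown as complex spheroids with HUVEC endothelial cells and mesenchymal stem cells as stroma. G-quadruplex stabilizers were combined with targeted agents over half-log dilutions from near the clinical Cmax, or from 10 microM.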

[1] = second compound 0.0316 µM, first compound 0.0316 µM
[2] = second compound 0.0316 µM, first compound 0.1 µM
[3] = second compound 0.0316 µM, first compound 0.316 µM
[4] = second compound 0.0316 µM, first compound 1 µM
[5] = second compound 0.0316 µM, first compound 3.16 µM
[6] = second compound 0.0316 µM, first compound 10 µM
[7] = second compound 0.1 µM, first compound 0.0316 µM
[8] = second compound 0.1 µM, first compound 0.1 µM
[9] = second compound 0.1 µM, first compound 0.316 µM
[10] = second compound 0.1 µM, first compound 1 µM
[11] = second compound 0.1 µM, first compound 3.16 µM
[12] = second compound 0.1 µM, first compound 10 µM
[13] = second compound 0.316 µM, first compound 0.0316 µM
[14] = second compound 0.316 µM, first compound 0.1 µM
[15] = second compound 0.316 µM, first compound 0.316 µM
[16] = second compound 0.316 µM, first compound 1 µM
[17] = second compound 0.316 µM, first compound 3.16 µM
[18] = second compound 0.316 µM, first compound 10 µM
[19] = second compound 1 µM, first compound 0.0316 µM
[20] = second compound 1 µM, first compound 0.1 µM
[21] = second compound 1 µM, first compound 0.316 µM
[22] = second compound 1 µM, first compound 1 µM
[23] = second compound 1 µM, first compound 3.16 µM
[24] = second compound 1 µM, first compound 10 µM
[25] = second compound 3.16 µM, first compound 0.0316 µM
[26] = second compound 3.16 µM, first compound 0.1 µM
[27] = second compound 3.16 µM, first compound 0.316 µM
[28] = second compound 3.16 µM, first compound 1 µM
[29] = second compound 3.16 µM, first compound 3.16 µM
[30] = second compound 3.16 µM, first compound 10 µM
[31] = second compound 10 µM, first compound 0.0316 µM
[32] = second compound 10 µM, first compound 0.1 µM
[33] = second compound 10 µM, first compound 0.316 µM
[34] = second compound 10 µM, first compound 1 µM
[35] = second compound 10 µM, first compound 3.16 µM
[36] = second compound 10 µM, first compound 10 µM
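Note: spheroids exposed to compounds for seven days before readout.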

CC(=O)O[C@H]1C(=O)[C@@]2(C)[C@H]([C@H](OC(=O)c3ccccc3)[C@]3(O)C[C@H](OC(=O)[C@H](O)[C@@H](NC(=O)c4ccccc4)c4ccccc4)C(C)=C1C3(C)C)[C@]1(OC(C)=O)CO[C@@H]1C[C@@H]2O + Cc1[nH]c2ccc(F)cc2c1-c1nc2c3cccnc3c3ncccc3c2[nH]1 gave an IC50 (second compound 0.0316 µM) of 458 nM, an IC50 (second compound 0.1 µM) of 467 nM and an IC50 (second compound 0.316 µM) of 451 nM. It also gave an IC50 (second compound 1 µM) of 469 nM, an IC50 (second compound 3.16 µM) of 453 nM and an IC50 (second compound 10 µM) of 496 nM. It also gave a viability, T/C [1] of 99.4%, a viability, T/C [2] of 92.9% and a viability, T/C [3] of 71.6%. For the same compound, the viability, T/C [4] was 4.67%, the viability, T/C [5] was 0.18% and the viability, T/C [6] was 0.29%. It also gave a viability, T/C [7] of 103%, a viability, T/C [8] of 97.7% and a viability, T/C [9] of 73.2%. The viability, T/C [10] was 4.64%, the viability, T/C [11] was 0.18% and the viability, T/C [12] was 0.45%. The viability, T/C [13] was 102%, the viability, T/C [14] was 91.2% and the viability, T/C [15] was 69.8%. The viability, T/C [16] was 6.24%, the viability, T/C [17] was 0.21% and the viability, T/C [18] was 0.26%. For the same compound, the viability, T/C [19] was 89.3%, the viability, T/C [20] was 87% and the viability, T/C [21] was 72.2%. It also gave a viability, T/C [22] of 7.42%, a viability, T/C [23] of 0.2% and a viability, T/C [24] of 0.87%. For the same compound, the viability, T/C [25] was 78.3%, the viability, T/C [26] was 82.9% and the viability, T/C [27] was 69.4%. For the same compound, the viability, T/C [28] was 7.14%, the viability, T/C [29] was 0.33% and the viability, T/C [30] was 0.32%. The viability, T/C [31] was 77.1%, the viability, T/C [32] was 79.7% and the viability, T/C [33] was 75.7%. The viability, T/C [34] was 10%, the viability, T/C [35] was 0.5% and the viability, T/C [36] was 0.22%.

With CCCS(=O)(=O)Nc1ccc(F)c(C(=O)c2c[nH]c3ncc(-c4ccc(Cl)cc4)cc23)c1F + Cc1[nH]c2ccc(F)cc2c1-c1nc2c3cccnc3c3ncccc3c2[nH]1 the IC50 (second compound 0.0316 µM) was greater than 10000 nM, the IC50 (second compound 0.1 µM) was greater than 10000 nM and the IC50 (second compound 0.316 µM) was greater than 10000 nM. The IC50 (second compound 1 µM) was 9220 nM, the IC50 (second compound 3.16 µM) was 5020 nM and the IC50 (second compound 10 µM) was 2510 nM. The viability, T/C [1] was 97.4%, the viability, T/C [2] was 89.3% and the viability, T/C [3] was 92.5%. It also gave a viability, T/C [4] of 84.3%, a viability, T/C [5] of 70.9% and a viability, T/C [6] of 60.1%. For the same compound, the viability, T/C [7] was 109%, the viability, T/C [8] was 99.2% and the viability, T/C [9] was 86%. For the same compound, the viability, T/C [10] was 77.6%, the viability, T/C [11] was 70.9% and the viability, T/C [12] was 53.8%. It also gave a viability, T/C [13] of 107%, a viability, T/C [14] of 93.9% and a viability, T/C [15] of 77.7%. It also gave a viability, T/C [16] of 73.4%, a viability, T/C [17] of 66.6% and a viability, T/C [18] of 54.7%. For the same compound, the viability, T/C [19] was 93.9%, the viability, T/C [20] was 89.8% and the viability, T/C [21] was 85.3%. The viability, T/C [22] was 76.2%, the viability, T/C [23] was 63.9% and the viability, T/C [24] was 49%. For the same compound, the viability, T/C [25] was 84%, the viability, T/C [26] was 86.2% and the viability, T/C [27] was 72%. The viability, T/C [28] was 71.2%, the viability, T/C [29] was 56.5% and the viability, T/C [30] was 39.8%. The viability, T/C [31] was 69.2%, the viability, T/C [32] was 72.6% and the viability, T/C [33] was 63.3%. The viability, T/C [34] was 66%, the viability, T/C [35] was 46% and the viability, T/C [36] was 37.1%.

Compound CC[C@@]1(O)C(=O)OCc2c1cc1n(c2=O)Cc2cc3c(CN(C)C)c(O)ccc3nc2-1 + Cc1[nH]c2ccc(F)cc2c1-c1nc2c3cccnc3c3ncccc3c2[nH]1 has an IC50 (second compound 0.0316 µM) greater than 316 nM, an IC50 (second compound 0.1 µM) greater than 316 nM and an IC50 (second compound 0.316 µM) greater than 316 nM. The IC50 (second compound 1 µM) was greater than 316 nM, the IC50 (second compound 3.16 µM) was greater than 316 nM and the IC50 (second compound 10 µM) was greater than 316 nM. The viability, T/C (second compound 0.0316 µM, first compound 0.000999 µM) was 108%, the viability, T/C (second compound 0.0316 µM, first compound 0.00316 µM) was 105% and the viability, T/C (second compound 0.0316 µM, first compound 0.00999 µM) was 109%. It also gave a viability, T/C [1] of 71.5%, a viability, T/C (second compound 0.0316 µM, first compound 0.0999 µM) of 98.3% and a viability, T/C [3] of 82.1%. For the same compound, the viability, T/C (second compound 0.1 µM, first compound 0.000999 µM) was 94.5%, the viability, T/C (second compound 0.1 µM, first compound 0.00316 µM) was 89.4% and the viability, T/C (second compound 0.1 µM, first compound 0.00999 µM) was 94.1%. The viability, T/C [7] was 78.7%, the viability, T/C (second compound 0.1 µM, first compound 0.0999 µM) was 94.2% and the viability, T/C [9] was 89.8%. It also gave a viability, T/C (second compound 0.316 µM, first compound 0.000999 µM) of 97.3%, a viability, T/C (second compound 0.316 µM, first compound 0.00316 µM) of 90.4% and a viability, T/C (second compound 0.316 µM, first compound 0.00999 µM) of 92.9%. It also gave a viability, T/C [13] of 88.2%, a viability, T/C (second compound 0.316 µM, first compound 0.0999 µM) of 101% and a viability, T/C [15] of 78.9%. For the same compound, the viability, T/C (second compound 1 µM, first compound 0.000999 µM) was 85.2%, the viability, T/C (second compound 1 µM, first compound 0.00316 µM) was 97.2% and the viability, T/C (second compound 1 µM, first compound 0.00999 µM) was 92.6%. It also gave a viability, T/C [19] of 95%, a viability, T/C (second compound 1 µM, first compound 0.0999 µM) of 91.3% and a viability, T/C [21] of 73.2%. The viability, T/C (second compound 3.16 µM, first compound 0.000999 µM) was 62.5%, the viability, T/C (second compound 3.16 µM, first compound 0.00316 µM) was 82.9% and the viability, T/C (second compound 3.16 µM, first compound 0.00999 µM) was 79.3%. The viability, T/C [25] was 72.4%, the viability, T/C (second compound 3.16 µM, first compound 0.0999 µM) was 84.4% and the viability, T/C [27] was 77.3%. The viability, T/C (second compound 10 µM, first compound 0.000999 µM) was 58.9%, the viability, T/C (second compound 10 µM, first compound 0.00316 µM) was 78.8% and the viability, T/C (second compound 10 µM, first compound 0.00999 µM) was 83.8%. The viability, T/C [31] was 78.2%, the viability, T/C (second compound 10 µM, first compound 0.0999 µM) was 89.5% and the viability, T/C [33] was 73.1%.
